{"source": "patent US8901313B2", "about": "“6,5-heterocyclic propargylic alcohol compounds and uses therefor” (Genentech, Inc., priority 2011, dated 2014)"}
{"target": "T1, nuclear factor-kappa B (NF-kB)-inducing kinase (NIK) (Homo sapiens, UniProt Q99558)", "T1 construct": "made in house; host or cells: baculovirus-infected insect cells", "T1 sequence (Q99558 whole entry)": "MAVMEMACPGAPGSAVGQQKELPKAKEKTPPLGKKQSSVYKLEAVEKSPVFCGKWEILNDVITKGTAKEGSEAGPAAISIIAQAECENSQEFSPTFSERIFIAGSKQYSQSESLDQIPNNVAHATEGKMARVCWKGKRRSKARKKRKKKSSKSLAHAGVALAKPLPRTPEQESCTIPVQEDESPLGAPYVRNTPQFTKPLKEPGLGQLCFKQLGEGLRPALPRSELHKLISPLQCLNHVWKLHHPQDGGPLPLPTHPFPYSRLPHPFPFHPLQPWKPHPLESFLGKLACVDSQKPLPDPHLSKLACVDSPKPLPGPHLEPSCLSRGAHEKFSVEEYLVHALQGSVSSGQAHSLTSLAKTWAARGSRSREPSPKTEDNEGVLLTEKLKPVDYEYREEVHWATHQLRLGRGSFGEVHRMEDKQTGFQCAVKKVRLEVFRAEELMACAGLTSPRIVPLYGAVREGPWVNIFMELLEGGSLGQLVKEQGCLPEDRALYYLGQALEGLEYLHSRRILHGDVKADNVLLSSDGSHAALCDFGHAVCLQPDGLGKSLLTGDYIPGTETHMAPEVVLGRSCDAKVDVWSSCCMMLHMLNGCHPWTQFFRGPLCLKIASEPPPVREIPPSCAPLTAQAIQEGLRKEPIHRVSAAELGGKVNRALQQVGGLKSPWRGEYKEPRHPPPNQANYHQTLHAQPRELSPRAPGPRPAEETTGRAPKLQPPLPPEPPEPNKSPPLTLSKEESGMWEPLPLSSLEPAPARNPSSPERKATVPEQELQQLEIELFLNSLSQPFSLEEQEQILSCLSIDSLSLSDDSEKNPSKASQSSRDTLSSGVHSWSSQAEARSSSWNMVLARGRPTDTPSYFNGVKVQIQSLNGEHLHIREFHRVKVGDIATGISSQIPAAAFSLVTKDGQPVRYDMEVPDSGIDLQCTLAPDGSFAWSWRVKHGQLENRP", "test": "NIK Enzyme Inhibition Assay (Transcreener ADP assay)", "type": "biochemical", "conditions": "purified NIK 0.2-1 nM, 10 uM ATP, fluorescence polarization, Morrison's quadratic equation; read-out: inhibitory value (Ki) for NIK", "units": {"Ki": "nM"}}
{"smiles": "N#Cc1ccc2cnn(-c3nc(N)ncc3[N+](=O)[O-])c2c1", "note": "[Example T1-8, 1-(2-amino-5-nitropyrimidin-4-yl)-1H-indazole-6-carbonitrile]", "Ki": 411}
{"smiles": "CC(C)(O)C#Cc1ccc2nc(C3CC3)n(-c3ccnc(N)n3)c2c1", "note": "[Example T1-17, 4-(1-(2-aminopyrimidin-4-yl)-2-cyclopropyl-1H-benzo[d]imidazol-6-yl)-2-methylbut-3-yn-2-ol]", "Ki": 2900}
{"smiles": "COc1ncccc1Nc1ncnc(-n2ncc3ccc(C#CC(C)(C)O)cc32)n1", "note": "[Example T1-24, 4-(1-(4-(2-methoxypyridin-3-ylamino)-1,3,5-triazin-2-yl)-1H-indazol-6-yl)-2-methylbut-3-yn-2-ol]", "Ki": 2100}
{"smiles": "CN(C)C(=O)c1nn(-c2ccnc(N)n2)c2cc(C#CC(C)(C)O)ccc12", "note": "[Example T1-30, 1-(2-aminopyrimidin-4-yl)-6-(3-hydroxy-3-methylbut-1-ynyl)-N,N-dimethyl-1H-indazole-3-carboxamide]", "Ki": 60}
{"smiles": "COc1ncccc1Nc1cc(-n2ncc3ccc(C#CC(C)(C)O)cc32)ncn1", "note": "[Example T1-31, 4-(1-(6-(2-methoxypyridin-3-ylamino)pyrimidin-4-yl)-1H-indazol-6-yl)-2-methylbut-3-yn-2-ol]", "Ki": 4600}
{"smiles": "CN(C)C(=O)c1nn(-c2ccnc(N)n2)c2cc(C#C[C@@](C)(O)c3nccs3)ccc12", "note": "[Example T1-46, (R)-1-(2-aminopyrimidin-4-yl)-6-(3-hydroxy-3-(thiazol-2-yl)but-1-ynyl)-N,N-dimethyl-1H-indazole-3-carboxamide]", "Ki": 0.16}
{"smiles": "C[C@@](O)(C#Cc1ccc2[nH]c(=O)n(-c3ccnc(N)n3)c2c1)c1nccs1", "note": "[Example T1-47, (R)-1-(2-aminopyrimidin-4-yl)-6-(3-hydroxy-3-(thiazol-2-yl)but-1-ynyl)-1H-benzo[d] imidazol-2(3H)-one]", "Ki": 0.11}
{"smiles": "Cc1nn(-c2ccnc(N)n2)c2cc(C#C[C@](C)(O)c3nccs3)ccc12", "note": "[Example T1-49, (S)-4-(1-(2-aminopyrimidin-4-yl)-3-methyl-1H-indazol-6-yl)-2-(thiazol-2-yl)but-3-yn-2-ol]", "Ki": 847}
{"smiles": "Cc1csc(C(C)(O)C#Cc2ccc3c(C)nn(-c4ccnc(N)n4)c3c2)n1", "note": "(stereo not drawn) [Example T1-51, 4-(1-(2-aminopyrimidin-4-yl)-3-methyl-1H-indazol-6-yl)-2-(4-methylthiazol-2-yl)but-3-yn-2-ol]", "Ki": 575}
{"smiles": "Cc1nn(-c2ccnc(N)n2)c2cc(C#CC3(O)CCN(C)CC3)ccc12", "note": "[Example T1-69, 4-((1-(2-aminopyrimidin-4-yl)-3-methyl-1H-indazol-6-yl)ethynyl)-1-methylpiperidin-4-ol]", "Ki": "≥ 5000"}
{"smiles": "CCOc1nc2ccc(C#CC(C)(O)c3cc(C)on3)cc2n1-c1ccnc(N)n1", "note": "(stereo not drawn) [Example T1-70, 4-(1-(2-aminopyrimidin-4-yl)-2-ethoxy-1H-benzo[d]imidazol-6-yl)-2-(5-methyl-isoxazol-3-yl)but-3-yn-2-ol]", "Ki": 0.5}
{"smiles": "Cc1cc([C@](C)(O)C#Cc2ccc3[nH]c(=O)n(-c4ccnc(N)n4)c3c2)no1", "note": "[Example T1.1-1, 3-(2-aminopyrimidin-4-yl)-[(3R)-3-hydroxy-3-(5-methyl-isoxazol-3-yl)but-1-ynyl]-1H-benzimidazol-2-one]", "Ki": 0.1}
{"smiles": "Cc1nc2ccc(C#C[C@@](C)(O)c3nccs3)cc2n1-c1ncnc(N)n1", "note": "[Example T1.1-2, (2R)-4-[3-(4-amino-1,3,5-triazin-2-yl)-2-methyl-benzimidazol-5-yl]-2-thiazol-2-yl-but-3-yn-2-ol]", "Ki": 0.2}
{"smiles": "Cc1cc(C(C)(O)C#Cc2ccc3c(C(O)C(C)C)nn(-c4ccnc(N)n4)c3c2)no1", "note": "(stereo not drawn) [Example T1.1-3, 4-[1-(2-aminopyrimidin-4-yl)-3-(1-hydroxy-2-methyl-pro-pyl)indazol-6-yl]-2-(5-methyl-isoxazol-3-yl)but-3-yn-2-ol]", "Ki": 0.2}
{"smiles": "Cc1cc([C@](C)(O)C#Cc2ccc3c(CO)nn(-c4ccnc(N)n4)c3c2)no1", "note": "[Example T1.1-4, (2R)-4-[1-(2-aminopyrimidin-4-yl)-3-(hydroxymethyl)indazol-6-yl]-2-(5-methyl-isoxazol-3-yl)but-3-yn-2-ol]", "Ki": 0.22}
